Patent US9695155B2, “Herbicidal substituted pyrimidinyloxy benzene compounds” (E. I. DU PONT DE NEMOURS AND COMPANY, priority 2013, dated 2017)

Key:
kochia = assay: Test A preemergence; type: in vivo, Kochia scoparia; conditions: for Kochia plant response rating: 500 g ai/ha
In short: (§1)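 Visual injury scored 0–100 (100 = complete control) against untreated controls about 10 days after treatment in a greenhouse. Test chemicals, formulated with surfactant in non-phytotoxic solvent, were sprayed on soil preemergence or on 2-10 cm, one- to two-leaf plants postemergence.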

ragweed = assay: Test A preemergence; type: in vivo, Ambrosia elatior; conditions: for Ragweed plant response rating: 500 g ai/ha
In short: as §1

Italian ryegrass = assay: Test A preemergence; type: in vivo, Lolium multiflorum; conditions: for Ryegrass, Italian plant response rating: 500 g ai/ha
In short: as §1

blackgrass = assay: Test A postemergence; type: in vivo, Alopecurus myosuroides
In short: as §1

galium [1] = assay: Test A postemergence; type: in vivo, Galium aparine
In short: as §1

wheat, winter = assay: Test C preemergence; type: in vivo, Triticum aestivum
In short: (§2)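 Sown in loam/sand → sprayed pre-emergence; or grown to 1–4 leaves in peat mix → sprayed post-emergence. Same solvent/surfactant formulation both ways. Greenhouse 13–15 d. Score 0–100 visual.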

galium [2] = assay: Test C preemergence; type: in vivo, Galium aparine
In short: as §2

corn = assay: Test C preemergence; type: in vivo, Zea mays
In short: as §2

large (Lg) crabgrass = assay: Test C preemergence; type: in vivo, Digitaria sanguinalis
In short: as §2

giant foxtail = assay: Test C preemergence; type: in vivo, Setaria faberii
In short: as §2

lambsquarters = assay: Test C preemergence; type: in vivo, Chenopodium album
In short: as §2

pigweed = assay: Test C preemergence; type: in vivo, Amaranthus retroflexus
In short: as §2

waterhemp = assay: Test C preemergence; type: in vivo, Amaranthus rudis
In short: as §2

velvetleaf = assay: Test C preemergence; type: in vivo, Abutilon theophrasti
In short: as §2

[3] = 125 g ai/ha, 0 to 100 scale where 0 is no effect and 100 is complete control
[4] = 0 to 100 scale where 0 is no effect and 100 is complete control
[5] = 500 g ai/ha, 0 to 100 scale where 0 is no effect and 100 is complete control
[6] = 125 g ai/ha, 0 to 100 scale, 0 no effect, 100 complete control
[7] = 16 g ai/ha, preemergence, scale 0 to 100 (0 no effect, 100 complete control)
[8] = 125 g ai/ha, preemergence, scale 0 (no effect) to 100 (complete control)
[9] = Preemergence, 62 g ai/ha, scale 0 to 100, 0 no effect, 100 complete control

For `FC(F)c1cn(-c2ccccc2Oc2ncc(Cl)cn2)nn1` [Compound 147, 5-chloro-2-[2-[4-(difluoromethyl)-1H-1,2,3-triazol-1-yl]phenoxy]pyrimidine], the “Plant response rating, Kochia” value (kochia; [3]) was 100, the “Kochia plant response rating” value (kochia; [4]) was 100 and the “Plant response rating, Ragweed” value (ragweed; [3]) was 90. The “Ragweed plant response rating” value (ragweed; [4]) was 100, the “Plant response rating, Ryegrass, Italian” value (Italian ryegrass; [3]) was 10 and the “Ryegrass, Italian plant response rating” value (Italian ryegrass; [4]) was 100. The “Blackgrass plant response rating” value (blackgrass; [3]) was 100, the “Plant response rating, Blackgrass” value (blackgrass; [5]) was 100 and the “Galium plant response rating” value (galium [1]; [3]) was 100. The “Plant response rating, Galium” value (galium [1]; [5]) was 100, the plant injury at 16 g/ha (wheat, winter; Triticum aestivum, pre-emergence, 16 g ai/ha, preemergence, scale 0 to 100 (0 no effect, 100 complete control), read-out: Wheat plant response rating) was 0% and the plant injury at 62 g/ha (wheat, winter; Triticum aestivum, pre-emergence, 62 g ai/ha, preemergence, scale 0 (no effect) to 100 (complete control), read-out: Wheat plant response rating) was 0%. The plant injury at 125 g/ha (wheat, winter; Triticum aestivum, pre-emergence, 125 g ai/ha, preemergence, scale 0 (no effect) to 100 (complete control), read-out: Wheat plant response rating) was 25%, the pest or weed control at 16 g/ha (galium [2]; Galium, pre-emergence, 16 g ai/ha, preemergence, scale 0 to 100 (0 no effect, 100 complete control), read-out: Galium plant response rating) was 90% and the pest or weed control at 62 g/ha (galium [2]; Galium, pre-emergence, 62 g ai/ha, preemergence, scale 0 (no effect) to 100 (complete control), read-out: Galium plant response rating) was 98%. The pest or weed control at 125 g/ha (galium [2]; Galium, pre-emergence, 125 g ai/ha, preemergence, scale 0 (no effect) to 100 (complete control), read-out: Galium plant response rating) was 98%, the pest or weed control at 31 g/ha (galium [2]; Galium, pre-emergence, Preemergence, 31 g ai/ha, scale 0 to 100, 0 no effect, 100 complete control, read-out: Plant response rating, Galium) was 98% and the plant injury at 16 g/ha (corn; Zea mays, pre-emergence, 16 g ai/ha, preemergence, scale 0 to 100 (0 no effect, 100 complete control), read-out: Corn plant response rating) was 0%. For the same molecule, the plant injury at 62 g/ha (corn; Zea mays, pre-emergence, 62 g ai/ha, preemergence, scale 0 (no effect) to 100 (complete control), read-out: Corn plant response rating) was 20%, the plant injury at 125 g/ha (corn; Zea mays, pre-emergence, 125 g ai/ha, preemergence, scale 0 (no effect) to 100 (complete control), read-out: Corn plant response rating) was 35% and the Corn plant response rating (crop injury, 0 = no effect, 100 = complete kill) at 31 g/ha (corn; Zea mays, pre-emergence, Preemergence, 31 g ai/ha, scale 0 to 100, 0 no effect, 100 complete control) was 0%. For the same molecule, the pest or weed control at 16 g/ha (large (Lg) crabgrass; Digitaria sanguinalis, pre-emergence, 16 g ai/ha, preemergence, scale 0 to 100 (0 no effect, 100 complete control), read-out: Crabgrass, Large plant response rating) was 98%, the pest or weed control at 62 g/ha (large (Lg) crabgrass; Digitaria sanguinalis, pre-emergence, 62 g ai/ha, preemergence, scale 0 (no effect) to 100 (complete control), read-out: Crabgrass, Large plant response rating) was 100% and the pest or weed control at 125 g/ha (large (Lg) crabgrass; Digitaria sanguinalis, pre-emergence, 125 g ai/ha, preemergence, scale 0 (no effect) to 100 (complete control), read-out: Crabgrass, Large plant response rating) was 100%. For the same molecule, the pest or weed control at 31 g/ha (large (Lg) crabgrass; Digitaria sanguinalis, pre-emergence, Preemergence, 31 g ai/ha, scale 0 to 100, 0 no effect, 100 complete control, read-out: Plant response rating, Crabgrass, Large) was 100%, the pest or weed control at 16 g/ha (giant foxtail; Setaria faberi, pre-emergence, 16 g ai/ha, preemergence, scale 0 to 100 (0 no effect, 100 complete control), read-out: Foxtail, Giant plant response rating) was 70% and the pest or weed control at 62 g/ha (giant foxtail; Setaria faberi, pre-emergence, 62 g ai/ha, preemergence, scale 0 (no effect) to 100 (complete control), read-out: Foxtail, Giant plant response rating) was 100%. It also gave a pest or weed control at 125 g/ha (giant foxtail; Setaria faberi, pre-emergence, 125 g ai/ha, preemergence, scale 0 (no effect) to 100 (complete control), read-out: Foxtail, Giant plant response rating) of 100%, a pest or weed control at 31 g/ha (giant foxtail; Setaria faberi, pre-emergence, Preemergence, 31 g ai/ha, scale 0 to 100, 0 no effect, 100 complete control, read-out: Plant response rating, Foxtail, Giant) of 100% and a pest or weed control at 16 g/ha (lambsquarters; Chenopodium album, pre-emergence, 16 g ai/ha, preemergence, scale 0 to 100 (0 no effect, 100 complete control), read-out: Lambsquarters plant response rating) of 100%. The pest or weed control at 62 g/ha (lambsquarters; Chenopodium album, pre-emergence, 62 g ai/ha, preemergence, scale 0 (no effect) to 100 (complete control), read-out: Lambsquarters plant response rating) was 100%, the pest or weed control at 125 g/ha (lambsquarters; Chenopodium album, pre-emergence, 125 g ai/ha, preemergence, scale 0 (no effect) to 100 (complete control), read-out: Lambsquarters plant response rating) was 100% and the pest or weed control at 16 g/ha (pigweed; Amaranthus retroflexus, pre-emergence, 16 g ai/ha, preemergence, scale 0 to 100 (0 no effect, 100 complete control), read-out: Pigweed plant response rating) was 100%. The pest or weed control at 62 g/ha (pigweed; Amaranthus retroflexus, pre-emergence, 62 g ai/ha, preemergence, scale 0 (no effect) to 100 (complete control), read-out: Pigweed plant response rating) was 100%, the pest or weed control at 125 g/ha (pigweed; Amaranthus retroflexus, pre-emergence, 125 g ai/ha, preemergence, scale 0 (no effect) to 100 (complete control), read-out: Pigweed plant response rating) was 100% and the pest or weed control at 16 g/ha (waterhemp; Amaranthus tuberculatus, pre-emergence, 16 g ai/ha, preemergence, scale 0 to 100 (0 no effect, 100 complete control), read-out: Waterhemp plant response rating) was 100%. It also gave a pest or weed control at 62 g/ha (waterhemp; Amaranthus tuberculatus, pre-emergence, 62 g ai/ha, preemergence, scale 0 (no effect) to 100 (complete control), read-out: Waterhemp plant response rating) of 100%, a pest or weed control at 125 g/ha (waterhemp; Amaranthus tuberculatus, pre-emergence, 125 g ai/ha, preemergence, scale 0 (no effect) to 100 (complete control), read-out: Waterhemp plant response rating) of 100% and a pest or weed control at 16 g/ha (velvetleaf; Abutilon theophrasti, pre-emergence, 16 g ai/ha, preemergence, scale 0 to 100 (0 no effect, 100 complete control), read-out: Velvetleaf plant response rating) of 100%. For the same molecule, the pest or weed control at 62 g/ha (velvetleaf; Abutilon theophrasti, pre-emergence, 62 g ai/ha, preemergence, scale 0 (no effect) to 100 (complete control), read-out: Velvetleaf plant response rating) was 100% and the pest or weed control at 125 g/ha (velvetleaf; Abutilon theophrasti, pre-emergence, 125 g ai/ha, preemergence, scale 0 (no effect) to 100 (complete control), read-out: Velvetleaf plant response rating) was 100%.
`N#Cc1cn(-c2c(C#N)cccc2Oc2ncc(Cl)cn2)nn1` [Compound 273] was tested, and the “Kochia plant response rating (0 to 100 scale)” value (kochia; 125 g ai/ha) was 100, the “Kochia plant response rating” value (kochia; [4]) was 100 and the “Ragweed plant response rating (0 to 100 scale)” value (ragweed; 125 g ai/ha) was 70. For the same molecule, the “Ragweed plant response rating” value (ragweed; [4]) was 80, the “Ryegrass, Italian plant response rating (0 to 100 scale)” value (Italian ryegrass; 125 g ai/ha) was 20 and the “Ryegrass, Italian plant response rating” value (Italian ryegrass; [4]) was 40. For the same molecule, the “Plant response rating, Blackgrass” value (blackgrass; [6]) was 60, the “Plant response rating, Blackgrass” value (blackgrass; [5]) was 80 and the “Plant response rating, Galium” value (galium [1]; [6]) was 80. For the same molecule, the “Plant response rating, Galium” value (galium [1]; [5]) was 100, the “Wheat plant response rating” value (wheat, winter; [7]) was 0 and the “Wheat plant response rating” value (wheat, winter; [8]) was 5. For the same molecule, the “Plant response rating, Wheat” value (wheat, winter; [9]) was 0, the “Galium plant response rating” value (galium [2]; [7]) was 0 and the “Galium plant response rating” value (galium [2]; [8]) was 98. For the same molecule, the “Plant response rating, Galium” value (galium [2]; [9]) was 95, the “Corn plant response rating” value (corn; [7]) was 0 and the “Corn plant response rating” value (corn; [8]) was 35. For the same molecule, the “Plant response rating, Corn” value (corn; [9]) was 45, the “Crabgrass, Large plant response rating” value (large (Lg) crabgrass; [7]) was 90 and the “Crabgrass, Large plant response rating” value (large (Lg) crabgrass; [8]) was 100. The “Plant response rating, Crabgrass, Large” value (large (Lg) crabgrass; [9]) was 95, the “Foxtail, Giant plant response rating” value (giant foxtail; [7]) was 0 and the “Foxtail, Giant plant response rating” value (giant foxtail; [8]) was 90. For the same molecule, the “Plant response rating, Foxtail, Giant” value (giant foxtail; [9]) was 75, the “Lambsquarters plant response rating” value (lambsquarters; [7]) was 35 and the “Lambsquarters plant response rating” value (lambsquarters; [8]) was 100. For the same molecule, the “Plant response rating, Lambsquarters” value (lambsquarters; [9]) was 100, the “Pigweed plant response rating” value (pigweed; [7]) was 55 and the “Pigweed plant response rating” value (pigweed; [8]) was 100. For the same molecule, the “Plant response rating, Pigweed” value (pigweed; [9]) was 100, the “Waterhemp plant response rating” value (waterhemp; [7]) was 45 and the “Waterhemp plant response rating” value (waterhemp; [8]) was 100. The “Plant response rating, Waterhemp” value (waterhemp; [9]) was 98, the “Velvetleaf plant response rating” value (velvetleaf; [7]) was 10 and the “Velvetleaf plant response rating” value (velvetleaf; [8]) was 85. The “Plant response rating, Velvetleaf” value (velvetleaf; [9]) was 85.
